Assay results published in patent US20230129812A1, “COMPOSITIONS AND METHODS FOR TREATING PULMONARY HYPERTENSION” (Acceleron Pharma Inc., priority 2020, published 2023).

How the values were obtained:
[1] = test system: pGL3(CAGA)12 reporter gene expression in A-204 cells; assay: A-204 reporter gene assay, stimulation by factors without inhibitors; assay type: cell-based, human; conditions: in the absence of any inhibitors
Text: An A-204 reporter gene assay was used to evaluate the effects of ActRIIB-Fc proteins and ActRIIB variant Fc fusion polypeptides on signaling by GDF-11 and activin A. Cell line: human rhabdomyosarcoma (derived from muscle). Reporter vector: pGL3(CAGA)12 (described in Dennler et al, 1998, EMBO 17: 3091-3100). The CAGA12 motif is present in TGF-beta responsive genes (e.g., PAI-1 gene), so this vector is of general use for factors signaling through SMADs.
Day 1: Split A-204 cells into 48-well plate.
Day 2: A-204 cells transfected with 10 ug pGL3(CAGA)12 or pGL3(CAGA)12(10 ug)+pRLCMV (1 pg) and Fugene.
Day 3: Add factors (diluted into medium+0.1% BSA). Inhibitors need to be preincubated with factors for 1 hr before adding to cells. Six hrs later, cells were rinsed with PBS and lysed.
This is followed by a luciferase assay.

[2] = test system: rat model of pulmonary arterial hypertension (PAH), monocrotaline-induced; assay: Monocrotaline (MCT) rat model of pulmonary arterial hypertension; assay type: in vivo, Sprague Dawley rats; conditions: MCT rats; for improvement in body weight: 28 days; for improvement in body weight / decrease of right heart hypertrophy / decrease of lung weight / reduction of elevated PAP: compared to monocrotaline treated rats (vehicle); for decrease of right heart hypertrophy / decrease of lung weight / reduction of elevated PAP: day 28; for decrease of right heart hypertrophy: RV/LV+S; for smooth muscle hypertrophy of pulmonary arterioles, average histopathological score: 0 (normal), 1 (minimal), 2 (mild), 3 (moderate), 4 (marked); for pulmonary arterioles completely muscularized / pulmonary arterioles non-muscularized / pulmonary arterioles partially muscularized: αSMA/elastin staining, 100 arterioles per animal
Method: The effects of an ActRIIA-mFc fusion protein (ActRIIA-mFc homodimer as described in Example 1), an ALK4-Fc-ActRIIB-Fc heterodimer (as described in Examples 12 and 13), and sildenafil (a phosphodiesterase-5 inhibitor approved for the treatment of PAH) were examined in a rat model of pulmonary arterial hypertension (PAH). In this model, Sprague Dawley rats received a […] injection of monocrotaline (MCT) to induce PAH 24 hours prior to start of therapy.
Rats were separated into different treatment groups (10 mice per group): 1) treatment with MCT (60 mg/kg administered i.p. as a single dose at day 1 of study) and Tris buffered saline (i.p. as 1 ml/kg, every three days) (vehicle treatment group), 2) treatment with an ActRIIA-mFc polypeptide (10 mg/kg administered i.p. every three days) and MCT (60 mg/kg administered i.p. as a single dose at day 1 of study), 3) treatment with an ALK4-Fc:ActRIIB-Fc heterodimer (10 mg/kg administered i.p. every three days) and MCT (60 mg/kg administered i.p. as a single dose at day 1 of study), 4) treatment with sildenafil (30 mg/kg administered orally twice daily) and MCT (60 mg/kg administered i.p. as a single dose at day 1 of study), and 5) control rats (Tris buffered saline administered i.p. as 1 ml/kg, every three days). Rats were treated for 28 days. Body weights were recorded prior to first dose on Day 1 and then weekly throughout the study.
(§1) On day 28, rats were anesthetized by an intraperitoneal injection of ketamine/xylazine (80/10 mg/kg). An incision was made in the neck, and a jugular vein was isolated and ligated anteriorly. A fluid-filled pressure catheter was introduced into the right jugular vein to measure pulmonary artery pressure (PAP). Another incision was made in the inguinal region, and femoral artery was isolated and ligated anteriorly. A Millar pressure catheter was introduced into a femoral artery to measure systolic arterial pressure, diastolic pressure, and heart rate. Mean arterial pressure and right PAP were monitored using the Notocord HEM (Croissy sur Seine, Frnace) v3.5 data capture system for approximately 5-10 minutes until stable measurements were obtained. During the measurements, rats were maintained at approximately 37° C. on a heating pad and body temperature was monitored throughout the procedure with a rectal temperature probe. At the conclusion of the procedure, rats were euthanized, and the hearts and lungs were removed. The entire heart was weighed. Next, the atria were removed and the left ventricle with septum (LV+S) was separated from the right ventricle (RV). The ventricles were weighed separately. Hypertrophy was assessed, in part, by calculating RV/LV+S. The lungs were also weighed.
(§2) Similar trends were observed on vessel muscularity based on histopathologic scoring. After staining tissue samples to detect αSMA/elastin, 100 pulmonary arterioles, between 10 μm and 50 m in size, per animal were categorized as non-muscularized, partially muscularized, or completely muscularized. Pulmonary arterioles from vehicle treated rats were determined to be 62.3% completely muscularized, 36.4% partially muscularized, and 1.4% non-muscularized. […] Histopathological scoring of smooth muscle hypertrophy of pulmonary arterioles were also recorded as follows: 0 (normal), 1 (minimal), 2 (mild), 3 (moderate), or 4 (marked).

[3] = test system: Sugen Hypoxia model of PAH; assay: Sugen Hypoxia rat model of PAH (semaxanib/hypoxia); assay type: in vivo; conditions: Sugen Hypoxia rats; for decrease of right heart hypertrophy / reduction of mean pulmonary arterial pressure: day 28, compared to vehicle treated animals; for smooth muscle hypertrophy of pulmonary arterioles, average histopathological score: 0 (normal), 1 (minimal), 2 (mild), 3 (moderate), 4 (marked); for pulmonary arterioles completely muscularized / pulmonary arterioles non-muscularized / pulmonary arterioles partially muscularized: αSMA/elastin staining, 100 arterioles per animal
Method: The effects of an ActRIIA-mFc fusion protein (ActRIIA-mFc homodimer as described in Example 1 and sildenafil (a phosphodiesterase-5 inhibitor approved for the treatment of PAH) were further examined the Sugen Hypoxia model of PAH. In this model, rats receive daily doses of semaxanib and are placed in a low oxygen environment (approximately 13% oxygen) to induce PAH 24 hours prior to start of therapy.
Rats were separated into different treatment groups (10 mice per group): 1) treatment with semaxanib (200 mg/kg administered s.c. as a single dose daily)/hypoxia and Tris buffered saline (administered i.p. as 1 ml/kg, every three days) (vehicle treatment group), 2) treatment with an ActRIIA-mFc polypeptide (10 mg/kg administered i.p. every three days) and semaxanib (200 mg/kg administered s.c. as a single dose daily)/hypoxia, 3) treatment with sildenafil (30 mg/kg administered orally twice daily) and semaxanib (200 mg/kg administered s.c. as a single dose daily)/hypoxia, and 4) control rats (Tris buffered saline administered i.p. as 1 ml/kg, every three days). Rats were treated for 28 days. Body weights were recorded prior to first dose on Day 1 and then weekly throughout the study.
as §1
as §2, with “[…]” for “μm”, “72.5%” for “62.3%”, “27.4%” for “36.4%”, “0.1%” for “1.4%”

GDF11 = molecular target: T1, GDF11 (Homo sapiens, UniProt O95390); assay: Biacore ligand affinity of ActRIIB-hFc forms, steady-state affinity fit; assay type: binding
T1 sequence (O95390 299-407): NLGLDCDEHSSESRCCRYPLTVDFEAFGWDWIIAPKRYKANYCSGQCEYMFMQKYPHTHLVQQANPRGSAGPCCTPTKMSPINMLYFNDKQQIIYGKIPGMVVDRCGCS
Method: (§3) Affinities of several ligands for ActRIIB(25-131)-hFc and its full-length counterpart ActRIIB(20-134)-hFc were evaluated in vitro with a Biacore™ instrument, and the results are summarized in Table 8 below. Kd values were obtained by steady-state affinity fit due to very rapid association and dissociation of the complex, which prevented accurate determination of kon and koff. ActRIIB(25-131)-hFc bound, for example, activin A, activin B, and GDF11 with high affinity.
(§4) The affinity of ActRIIB variants and other ActRIIB-hFc proteins for several ligands was evaluated in vitro with a Biacore™ instrument. Kd values were obtained by steady-state affinity fit due to the very rapid association and dissociation of the complex, which prevented accurate determination of kon and koff.

activin A = molecular target: T2, activin A (Homo sapiens, UniProt P08476); assay: as above; assay type: binding
T2 sequence (P08476 311-426): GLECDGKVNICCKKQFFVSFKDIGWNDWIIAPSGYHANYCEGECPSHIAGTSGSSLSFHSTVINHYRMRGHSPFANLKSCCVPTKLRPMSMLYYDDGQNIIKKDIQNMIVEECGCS
Method: as §3, §4

activin B = molecular target: T3, activin B (Homo sapiens, UniProt P09529); assay: as above; assay type: binding
T3 sequence (P09529 293-407): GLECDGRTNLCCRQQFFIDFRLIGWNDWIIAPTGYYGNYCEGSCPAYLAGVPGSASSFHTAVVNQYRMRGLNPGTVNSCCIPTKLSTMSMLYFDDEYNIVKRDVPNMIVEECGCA
Method: as §3, §4

Row | Molecule | ED50 [1] [ng/mL] | stimulation of reporter gene expression [1] [fold] | improvement in body weight [2] | decrease of right heart hypertrophy [2] [%] | decrease of lung weight [2] [%] | reduction of elevated PAP [2] [%] | smooth muscle hypertrophy of pulmonary arterioles, average histopathological score [2] | pulmonary arterioles completely muscularized [2] [%] | pulmonary arterioles non-muscularized [2] [%] | pulmonary arterioles partially muscularized [2] [%] | decrease of right heart hypertrophy [3] [%] | reduction of mean pulmonary arterial pressure [3] [%] | smooth muscle hypertrophy of pulmonary arterioles, average histopathological score [3] | pulmonary arterioles completely muscularized [3] [%] | pulmonary arterioles non-muscularized [3] [%] | pulmonary arterioles partially muscularized [3] [%] | further results
1 | GDF-11: TGF-beta superfamily ligand added as factor in the A-204 reporter gene assay | ~1.5 | 16 | – | – | – | – | – | – | – | – | – | – | – | – | – | – | –
2 | ActRIIA-mFc: extracellular domain of human ActRIIa fused to a mouse Fc domain with a minimal linker; homodimer | – | – | did not show improvement in body weight | 47.1 | 18.4 | 68 | 1.6 | 25.8 | 7.3 | 66.9 | 53.5 | 51.3 | 1.4 | 29.3 | 1.4 | 69.3 | –
3 | activin A: TGF-beta superfamily ligand added as factor in the A-204 reporter gene assay | ~2 | 10 | – | – | – | – | – | – | – | – | – | – | – | – | – | – | –
4 | CCCc1nn(C)c2c(=O)[nH]c(-c3cc(S(=O)(=O)N4CCN(C)CC4)ccc3OCC)nc12 [sildenafil, reference compound] | – | – | did not have any improvement in body weight | 18.5 | 10 | 30 | 3 | 57.9 | 0.9 | 41.6 | 10 | 22.4 | 3 | 67.4 | 1.0 | 31.6 | –
5 | ActRIIB(25-131)-hFc: human ActRIIB extracellular domain with N- and C-terminal truncations (residues 25-131) fused to human Fc via three glycines | – | – | – | – | – | – | – | – | – | – | – | – | – | – | – | – | GDF11 binding (GDF11; Biacore): high affinity; Kd (GDF11; Table 12, Kd by steady-state affinity fit, read-out: GDF11 (Kd e−11)): 31 pM; activin A binding (activin A; Biacore): high affinity; Kd (activin A; Table 12, Kd by steady-state affinity fit, read-out: Activin A (Kd e−11)): 18 pM; activin B binding (activin B; Biacore): high affinity; Kd (activin B; Table 12, Kd by steady-state affinity fit, read-out: Activin B (Kd e−11)): 12 pM
